Test results published in patent publication US20190060340A1, “NOVEL AMINOGLYCOSIDES AND USES THEREOF IN THE TREATMENT OF GENETIC DISORDERS” (Technion Research & Development Foundation Limited, priority 2007, published 2019).
≈ marks a conversion by molar mass, not a printed value. Read-outs that look alike come from different tables or passages of the source.

How the values were obtained:
[1] = tested on: R245X (PCDH15, Usher Syndrome); experiment: Dual luciferase in vitro transcription/translation assay; assay type: biochemical, human
Source text: (§1) DNA fragments derived from the subsequent genes, including the tested stop mutation or the corresponding wild-type codon, and four upstream and downstream flanking codons (except for p.R3X constructs, in which there are only two upstream PCDH15-flanking codons) were cloned into p2Luc plasmid between renilla and firefly luciferase genes as described previously. The formed plasmids, as well as the original p2Luc plasmid containing a TGA C nonsense mutation, were transcribed and translated in vitro and the stop codon suppression efficiency was calculated as described previously.
(§2) For the dual luciferase in vitro transcription/translation assay, DNA fragments derived from PCDH15, CFTR, Dystrophin and IDUA cDNAs, including the tested stop mutation or the corresponding wild-type codon, and four upstream and downstream flanking codons (except for p.R3X constructs, in which there are only two upstream PCDH15-flanking codons) were created by annealing the couples of complementary oligonucleotides presented above.
(§3) Fragments were inserted into the SalI and SacI restriction sites of the p2Luc plasmid between renilla and firefly luciferase genes. The afforded plasmids, as well as the original p2Luc plasmid containing a TGA C nonsense mutation, were transcribed and translated using the TNT Reticulocyte Lysate Quick Coupled Transcription/Translation System (Promega™). Each transcription/translation reaction (10 μl, total volume) contained 8 μl TNT T7 Quick Master Mix, 0.2 μl methionine (1 mM), 0.8 μl DNA template (2 μg/μl), 1 μl of either water (blank) or 1 μl solution of increasing concentrations of the tested aminoglycosides in water. Luciferase activity was determined following 90 minutes incubation at 30° C. using the Dual Luciferase Reporter Assay System (Promega™). The total luminescence produced by each one of the proteins was measured separately using the FLx800 multidetection plate reader (Bio-Tek) and the stop codon suppression efficiency was calculated as described previously. The results are averages of at least three independent experiments.

[2] = tested on: G542X (CFTR, Cystic Fibrosis); experiment: as above; assay type: biochemical, human
Source text: as §1, §2, §3

[3] = tested on: W402X (IDUA, Hurler Syndrome); experiment: as above; assay type: biochemical, human
Source text: as §1, §2, §3

[4] = tested on: Q70X (IDUA, Hurler Syndrome); experiment: as above; assay type: biochemical, human
Source text: as §1, §2, §3

[5] = tested on: R3381X (Dystrophin, Duchenne Muscular Dystrophy); experiment: as above; assay type: biochemical, human
Source text: as §1, §2, §3

[6] = tested on: R3X (PCDH15, Usher Syndrome); experiment: as above; assay type: biochemical, human
Source text: as §1, §2, §3

[7] = tested on: W1282X (CFTR, Cystic Fibrosis); experiment: as above; assay type: biochemical, human
Source text: as §1, §2, §3

[8] = tested on: UGA C stop codon (p2LUC plasmid) in COS-7 cells; experiment: Ex vivo suppression, p2LUC dual luciferase reporter plasmid in COS-7 cells; assay type: cell-based, monkey; details: 24 hours incubation
Experimental: Recent studies on enhanced production of functional proteins from nonsense codon-containing genes by promoter-activating agents support this presumption. To test this possibility, Compound 3 along with paromomycin and gentamicin, were evaluated for the UGA C stop codon read-through activity in cultured cells using a dual luciferase reporter system.
Suppression of nonsense mutations by Compounds 1-9 was tested ex vivo using a dual luciferase reporter plasmid. The p2LUC plasmid harboring the UGAC mutation was transfected to COS-7 cells with Lipofectamine 2000 (Invitrogen) and addition of tested compounds was performed after 15 hours. Luciferase activity was determined after 24 hours of incubation, using the Dual Luciferase Reporter Assay System (Promega) and stop codon readthrough was calculated as described previously.

[9] = Cell toxicity assay (XTT cell proliferation); assay type: cell-based
Experimental: (§4) After 1 day the medium was changed to medium without streptomycin and different concentrations of the tested compounds were added. After 48 hours a cell proliferation assay (XTT based colorimetric assay, Biological Industries) was performed, using the 5 hours incubation protocol, according to the manufacturer's instructions. Optical density (OD) was read using an Elisa plate reader. Cell viability was calculated as the ratio between the number of living cells in cultures grown in the presence of the tested compounds, versus the corresponding cell cultures which were grown without the tested compounds.

[10] = tested on: prokaryotic translation; experiment: Inhibition of prokaryotic translation; assay type: biochemical; details: for preference for inhibiting translation in prokaryotes versus eukaryotes: from IC50 values
[11] = tested on: eukaryotic translation; experiment: Inhibition of eukaryotic translation; assay type: biochemical
[12] = Acute toxicity in mice; assay type: in vivo
[13] = tested on: R3X nonsense mutation of the PCDH15 gene in COS-7 cells; experiment: Ex vivo readthrough assay, p2luc-R3X dual luciferase reporter plasmid in COS-7 cells; assay type: cell-based, monkey
Experimental: For the, suppression of nonsense mutations by novel compounds was tested ex vivo using a dual luciferase reporter plasmid ex vivo readthrough assay. To generate the p2luc plasmid harboring the R3X nonsense mutation of the PCDH15 gene, the following oligonucleotides: 5′-[…]-3′ (SEQ ID NO: 21) and 5′-[…]-3′ (SEQ ID NO: 22) were annealed to each other and inserted into to polylinker sequence of the p2luc vector. The reporter plasmid p2luc-R3X was transfected to cos-7 cells with Lipofectamine 2000 (Invitrogen) and addition of tested compounds was performed 5 hours post transfection. Luciferase activity was determined after 24 hours of incubation, using the Dual Luciferase Reporter Assay System (Promega) and stop codon readthrough was calculated as described previously.

[14] = tested on: TGA stop codon; experiment: Preliminary tests for in vitro readthrough activity of the TGA stop codon; assay type: biochemical
[15] = Cell toxicity of Compound 37; assay type: cell-based
[16] = tested on: human cytoplasmic A site olygonucleotide model duplexes; experiment: UV melting of A site oligonucleotide model duplexes; assay type: binding
Source text: FIG. 7 presents the UV melting profiles observed for the human cytoplasmic A site olygonucleotide model duplexes in the absence of any drug (“No Drug” curve in FIG. 7) and in complex with ribostamycin (“Ribostamycin” curve in FIG. 7), Compound 3 (“NB30” curve in FIG. 7) and Compound 37 (“NB54” curve in FIG. 7) complexes at a drug/duplex ratio of 5:1;

[17] = available toxicity data on aminoglycosides; unit inferred; cited from earlier work
[18] = tested on: HEK-293 (human embryonic kidney); experiment: Cell toxicity assay (XTT cell proliferation); assay type: cell-based; details: 48 hours
Experimental: as §4

[19] = tested on: COS-7 (monkey kidney); experiment: Cell toxicity assay (XTT cell proliferation); assay type: cell-based; details: 48 hours
Experimental: as §4

[20] = tested on: MDCK (canine kidney); experiment: Cell toxicity assay (XTT cell proliferation); assay type: cell-based; details: 48 hours
Experimental: as §4

Compound	Maximum in vitro suppression (%) R245X [1] [%]	Maximum in vitro suppression (%) G542X [2] [%]	Maximum in vitro suppression (%) W402X [3] [%]	Maximum in vitro suppression (%) Q70X [4] [%]	Maximum in vitro suppression (%) R3381X [5] [%]	Maximum in vitro suppression (%) R3X [6] [%]	Maximum in vitro suppression (%) W1282X [7] [%]	ex-vivo suppression of nonsense mutation (read-through activity), FIG. 4 [8]	efficacy of inhibiting prokaryotic ribosome relative to gentamicin and paromomycin [10]	preference for inhibiting translation in prokaryotes versus eukaryotes [10]	IC50 [11] [µM]	fold more efficient inhibition of eukaryotic translation than gentamicin and paromomycin [11]	other results
NC[C@H]1O[C@@H](O[C@@H]2[C@@H](O)[C@H](N)C[C@H](N)[C@H]2O[C@H]2O[C@H](CO)[C@@H](O)[C@H](O)[C@H]2N)[C@H](O)[C@@H]1O [Compound 3]	0.98 ± 0.30	0.63 ± 0.29	3.2 ± 0.4	2.0 ± 0.4	1.8 ± 0.2	2.9 ± 0.9	1.6 ± 0.4	superior to that of paromomycin and gentamicin at all the tested concentrations	significantly lower	about two-order of magnitude	31	about 2 fold	CC50 at 48 h ([9]; dog, MDCK cells, 48 hours, read-out: LC50 MDCK): 7530 ± 1210 µg/mL (≈ 16.6 mM); CC50 at 48 h ([9]; human, HEK-293 cells, 48 hours, read-out: LC50 HEK293): 4820 ± 920 µg/mL (≈ 10.6 mM); CC50 at 48 h ([9]; monkey, COS-7 cells, 48 hours, read-out: LC50 COS-7): 7030 ± 1850 µg/mL (≈ 15.5 mM)
NCC[C@H](O)C(=O)N[C@@H]1CC(N)[C@@H](O[C@H]2OC(CO)[C@@H](O)C(O)C2N)C(O[C@@H]2O[C@H](CN)C(O)C2O)C1O (stereo partly drawn) [Compound 37]	4.9 ± 0.5	5.1 ± 0.6	21.9 ± 4.4	10.6 ± 1.1	7.8 ± 0.8	29.2 ± 3.1	3.3 ± 0.4	–	significantly lower	about two-order of magnitude	24	about 3 fold	acute toxicity in mice in comparison to paromomycin and gentamicin [12]: significantly reduced; maximum suppression level of the R3X nonsense mutation [13]: 5.25%; in vitro readthrough activity of the TGA stop codon vs Compound 3 and paromomycin [14]: significantly higher stop codon read-through activity; cell toxicity in comparison to paromomycin and gentamicin [15]: significantly reduced; affinity to the cytoplasmic A site versus Compound 3 [16]: greater affinity
NC[C@@H]1O[C@H](O[C@H]2[C@@H](O)[C@H](O[C@@H]3[C@@H](O)[C@H](N)C[C@H](N)[C@H]3O[C@H]3O[C@H](CO)[C@@H](O)[C@H](O)[C@H]3N)O[C@@H]2CO)[C@H](N)[C@@H](O)[C@@H]1O [paromomycin, reference compound]	0.71 ± 0.32	0.74 ± 0.08	3.3 ± 0.1	2.2 ± 0.5	2.4 ± 0.3	9.4 ± 0.5	1.2 ± 0.2	–	–	about tree order of magnitude	58	–	CC50 at 48 h ([9]; dog): 1000 ± 60 µg/mL (≈ 1.62 mM); CC50 at 48 h ([9]; human): 770 ± 140 µg/mL (≈ 1.25 mM); CC50 at 48 h ([9]; monkey): 900 ± 100 µg/mL (≈ 1.46 mM); LD50 [17]: 160 mg/kg
gentamicin [reference compound]	0.90 ± 0.28	2.8 ± 0.7	7.2 ± 0.5	1.5 ± 0.4	3.5 ± 0.7	14.0 ± 1.0	1.4 ± 0.5	less efficient than either paromomycin or Compound 3	–	about tree order of magnitude	60	–	LC50 HEK293 [18]: 700 ± 80 µg/mL; LC50 COS-7 [19]: 490 ± 60 µg/mL; LC50 MDCK [20]: 510 ± 70 µg/mL
